One assay addresses T1, 5-HT2A receptor (Homo sapiens, UniProt P28223).
T1 construct: expressed in transfected cells; host or cells: HEK293
Briefly: 5-HT2A receptor binding method, [3H]ketanserin. The conditions noted are these: read-out: pKi values (converted).

A further assay deals with T2, 5-HT2C receptor (Homo sapiens, UniProt P28335).
T2 construct: expressed in transfected cells; host or cells: Cos-7
The assay is described as follows: 5-HT2C receptor binding method, [3H]mesulergine. The conditions noted are these: read-out: pKi values (converted). How it is done: 5-HT2C receptors were labelled in Cos-7 cells expressing the human 5-HT2C receptor and in NIH-3T3 expressing the rat 5-HT2C receptor.
Assays were conducted as described for the 5-HT2A receptor except that the radioligand was [^3H]mesulergine. […] .

For a further assay, the target named is T3, human H1 receptor (Homo sapiens, UniProt P35367).
T3 construct: expressed in transfected cells
T3 sequence (P35367 whole entry): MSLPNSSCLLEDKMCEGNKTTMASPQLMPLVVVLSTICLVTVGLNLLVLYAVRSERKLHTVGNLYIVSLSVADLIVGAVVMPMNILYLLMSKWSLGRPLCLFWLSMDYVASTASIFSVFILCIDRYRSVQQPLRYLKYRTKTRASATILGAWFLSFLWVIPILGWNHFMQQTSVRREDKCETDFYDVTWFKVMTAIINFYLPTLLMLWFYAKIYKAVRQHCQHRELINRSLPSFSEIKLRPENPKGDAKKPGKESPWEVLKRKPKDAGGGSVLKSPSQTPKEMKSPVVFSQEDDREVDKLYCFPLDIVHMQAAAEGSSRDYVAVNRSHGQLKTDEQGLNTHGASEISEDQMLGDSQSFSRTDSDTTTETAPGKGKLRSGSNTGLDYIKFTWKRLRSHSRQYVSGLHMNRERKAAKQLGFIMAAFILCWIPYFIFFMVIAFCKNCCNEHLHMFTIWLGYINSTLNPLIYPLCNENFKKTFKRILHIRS
Briefly: Cloned human H1 receptor binding assay, [3H]-mepyramine. How it is done: (§1) CHO cells were stably transfected with an expression plasmid pCineohH1, pCineohH2, pCineohH3 and pCineohH4 encoding the human Histamine H1, H2, H3 or H4 receptor, respectively. Recombinant cell lines were harvested after confluent growth, homogenized in ice-cold 50 mM Na2/potassium phosphate buffer (pH 7.4) and used for radioligand binding studies. Cell homogenates (40 - 50 µg of protein) were incubated for 30 min at 25°C in 50 mM Na2/potassium phosphate buffer (pH 7.4) in 400 µl with the various concentrations of either [^3H]-mepyramine, [^3H]-thiotidine, [^3H]-R-α-Methylhistamine, and [^3H]-pyramilamine for cells expressing recombinant human H1, H2, H3 and H4 receptors, respectively. The nonspecific binding was defined in the presence of 1 µM mianserin. In displacement studies, cell homogenated were incubated either with 1 nM [^3H]-mepyramine, 15 nM [^3H]-thiotidine, 0.5 nM [^3H]-R-α-Methylhistamine, or 15 nM [^3H]-pyramilamine and increasing concentrations of competing ligands. The incubations were stopped by rapid dilution with 3 ml of ice-cold 50 mM Na2/potassium phosphate buffer (pH 7.4). The bound radioactivity was seperated by filatration through Whatman GF/C filters that had been treated with 0.3 % polyethyleneimine. Filters were washed twice in 3 ml of buffer and radioactivity retained on the filters was measured by liquid scinitllation counting. […]

Assay [1] addresses T4, human Histamine H2 receptor (Homo sapiens, UniProt P25021).
T4 construct: expressed in transfected cells
Briefly: Cloned human H2 receptor binding assay, [3H]-thiotidine. The protocol: as §1

Assay [2] concerns the target T5, human Histamine H3 receptor (Homo sapiens, UniProt Q9Y5N1).
T5 construct: expressed in transfected cells
The assay is described as follows: Cloned human H3 receptor binding assay, [3H]-R-α-Methylhistamine. How it is done:
as §1

In assay [3] the target is T6, human Histamine H4 receptor (Homo sapiens, UniProt Q9H3N8).
T6 construct: expressed in transfected cells
T6 sequence (Q9H3N8 whole entry): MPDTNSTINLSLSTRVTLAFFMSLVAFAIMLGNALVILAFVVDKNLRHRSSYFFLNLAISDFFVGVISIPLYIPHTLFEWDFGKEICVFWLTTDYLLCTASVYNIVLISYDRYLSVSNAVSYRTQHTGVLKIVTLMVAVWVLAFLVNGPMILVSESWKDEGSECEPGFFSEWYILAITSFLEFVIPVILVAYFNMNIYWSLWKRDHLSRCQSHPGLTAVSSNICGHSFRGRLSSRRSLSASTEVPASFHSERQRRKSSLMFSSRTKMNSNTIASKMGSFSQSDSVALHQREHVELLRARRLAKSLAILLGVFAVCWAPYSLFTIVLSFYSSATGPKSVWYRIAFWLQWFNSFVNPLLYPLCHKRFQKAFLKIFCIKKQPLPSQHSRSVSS
The assay is described as follows: Cloned human H4 receptor binding assay, [3H]-pyramilamine. The protocol: as §1

A further assay has as its target T7, M1 muscarinic receptor (Homo sapiens, UniProt P11229).
T7 sequence (P11229 1-460): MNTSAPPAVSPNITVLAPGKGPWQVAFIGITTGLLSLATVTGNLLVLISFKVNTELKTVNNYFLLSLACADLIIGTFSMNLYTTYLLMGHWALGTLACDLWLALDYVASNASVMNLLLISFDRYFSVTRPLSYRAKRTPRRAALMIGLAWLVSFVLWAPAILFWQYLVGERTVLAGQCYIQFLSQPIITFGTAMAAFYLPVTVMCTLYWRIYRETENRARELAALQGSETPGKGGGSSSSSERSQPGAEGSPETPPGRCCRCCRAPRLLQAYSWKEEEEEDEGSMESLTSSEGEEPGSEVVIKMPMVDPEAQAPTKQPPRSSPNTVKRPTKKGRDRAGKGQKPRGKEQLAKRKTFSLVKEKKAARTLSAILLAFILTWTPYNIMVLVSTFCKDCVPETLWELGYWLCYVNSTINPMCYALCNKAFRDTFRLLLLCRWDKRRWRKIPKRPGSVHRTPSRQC
Briefly: Receptor affinity, M1 (acetylcholine as agonist). It is filed as binding. The conditions noted are these: read-out: pKi values (converted). How it is done: (§2) Summary of pKi values of Pimethixene for the respective receptor subtypes. pKi values were calculated using the equation of Cheng and Prusoff {pKi = -log (IC50/[1+ used concentration of Agonist/EC50])}.EC80 values were calculated from corresponding dose-response experiment using 5-HT, histamine, epinephrine (alpha 1A adrenergic receptor), dopamine (D2 dopaminergic receptor), and acetylcholine (M1 muscarinic receptor) as agonists.

A further assay has as its target D2 dopaminergic receptor (Homo sapiens, UniProt P14416). The assay is described as follows: Receptor affinity, D2 (dopamine as agonist). It is filed as binding. The conditions noted are these: read-out: pKi values (converted). The protocol:
as §2

Assay [4] concerns the target T8, alpha 1A adrenergic receptor (Homo sapiens, UniProt P35348).
T8 sequence (P35348 1-466): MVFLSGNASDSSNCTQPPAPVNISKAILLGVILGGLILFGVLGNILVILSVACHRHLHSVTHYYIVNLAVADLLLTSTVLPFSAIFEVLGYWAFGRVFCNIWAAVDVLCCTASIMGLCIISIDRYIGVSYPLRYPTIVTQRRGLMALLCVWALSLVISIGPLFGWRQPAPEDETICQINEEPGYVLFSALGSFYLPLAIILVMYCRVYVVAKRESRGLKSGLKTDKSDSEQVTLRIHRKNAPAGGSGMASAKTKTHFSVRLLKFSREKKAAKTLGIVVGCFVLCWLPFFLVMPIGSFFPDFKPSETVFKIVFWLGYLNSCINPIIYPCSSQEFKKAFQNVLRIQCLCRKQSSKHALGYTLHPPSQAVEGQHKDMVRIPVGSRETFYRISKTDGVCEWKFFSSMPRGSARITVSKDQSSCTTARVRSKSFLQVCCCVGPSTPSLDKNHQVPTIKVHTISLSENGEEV
Briefly: Receptor affinity, Alpha 1A (epinephrine as agonist). It is filed as binding. The conditions noted are these: read-out: pKi values (converted). The protocol:
as §2

In assay [5] the test system is plasma protein extravasation. The assay is described as follows: mCPP model in guinea pigs: plasma protein extravasation in the dura mater (EvansBlue). It is filed as in vivo. Particulars: for plasma protein extravasation as EvansBlue extinction at 600nm: 2 minutes before 1µg/kg mCPP, guinea pigs. How it is done: Functional test of Pimethixene in the mCPP model in guinea pigs.
In accordance to the protocol published by Markowitz et. al; (1987) and Olesen et. al; (2000), guinea pigs were used to determine the amount of plasma protein released at the blood vessels within the Dura mater after mCPP application. […] 2 minutes later 1µg/kg body weight mCPP were injected and followed by the i.v. application of EvansBlue as marker for the protein plasma extravasation. 15 minutes later animals were transcranial perfused and decapitated. A,defined area of the dura mater was isolated and transferred into an eppendorf tube containing 200µl formamid. Because EvansBlue binds to plasma protein, the amount of bound marker dye is a measure of extravasation of plasma protein. Formamid dissolves EvansBlue from the protein which can be colorimetric detected and quantified at 600 nm. Table 2: Determination of plasma protein extravasation as EvansBlue extinction at 600nm.

A further assay deals with human 5-HT2B receptor (Homo sapiens, UniProt P41595). The assay is described as follows: Cloned human 5-HT2B receptor binding assay, [3H]-5HT.
Sequence of human 5-HT2B receptor (P41595 whole entry): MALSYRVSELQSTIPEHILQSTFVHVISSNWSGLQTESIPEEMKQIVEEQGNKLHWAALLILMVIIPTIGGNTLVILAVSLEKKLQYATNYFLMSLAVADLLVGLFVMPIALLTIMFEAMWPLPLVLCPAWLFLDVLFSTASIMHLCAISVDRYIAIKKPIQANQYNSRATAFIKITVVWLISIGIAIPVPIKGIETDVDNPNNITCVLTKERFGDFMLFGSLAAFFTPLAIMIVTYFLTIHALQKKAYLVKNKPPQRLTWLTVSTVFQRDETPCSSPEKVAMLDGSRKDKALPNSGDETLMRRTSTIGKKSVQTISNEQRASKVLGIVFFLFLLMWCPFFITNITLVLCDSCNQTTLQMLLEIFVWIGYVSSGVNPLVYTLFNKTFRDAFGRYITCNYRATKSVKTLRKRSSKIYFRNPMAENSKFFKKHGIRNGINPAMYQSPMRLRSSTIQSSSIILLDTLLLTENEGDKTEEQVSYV

T4 sequence (P25021 whole entry): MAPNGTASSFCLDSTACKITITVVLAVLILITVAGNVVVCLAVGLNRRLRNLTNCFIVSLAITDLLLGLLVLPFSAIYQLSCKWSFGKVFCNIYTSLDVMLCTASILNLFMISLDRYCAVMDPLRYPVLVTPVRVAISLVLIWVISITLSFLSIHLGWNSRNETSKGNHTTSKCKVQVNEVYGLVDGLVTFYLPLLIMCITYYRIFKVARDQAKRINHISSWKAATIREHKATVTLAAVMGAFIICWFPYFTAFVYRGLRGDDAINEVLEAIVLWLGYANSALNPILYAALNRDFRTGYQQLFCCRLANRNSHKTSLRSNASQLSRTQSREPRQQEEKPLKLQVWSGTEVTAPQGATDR
T5 sequence (Q9Y5N1 whole entry): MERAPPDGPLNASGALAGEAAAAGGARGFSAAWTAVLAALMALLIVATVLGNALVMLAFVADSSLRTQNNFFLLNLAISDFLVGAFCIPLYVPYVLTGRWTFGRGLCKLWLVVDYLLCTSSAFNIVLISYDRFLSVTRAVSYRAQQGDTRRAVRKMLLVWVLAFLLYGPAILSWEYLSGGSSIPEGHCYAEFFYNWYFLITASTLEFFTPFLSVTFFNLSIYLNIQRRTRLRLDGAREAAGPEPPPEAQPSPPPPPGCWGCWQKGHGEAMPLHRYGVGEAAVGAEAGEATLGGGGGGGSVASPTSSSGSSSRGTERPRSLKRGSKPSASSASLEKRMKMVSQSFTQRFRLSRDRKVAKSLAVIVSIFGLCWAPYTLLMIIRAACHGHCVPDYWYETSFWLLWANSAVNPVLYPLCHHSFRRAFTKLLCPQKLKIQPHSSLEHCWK
T1 sequence (P28223 whole entry): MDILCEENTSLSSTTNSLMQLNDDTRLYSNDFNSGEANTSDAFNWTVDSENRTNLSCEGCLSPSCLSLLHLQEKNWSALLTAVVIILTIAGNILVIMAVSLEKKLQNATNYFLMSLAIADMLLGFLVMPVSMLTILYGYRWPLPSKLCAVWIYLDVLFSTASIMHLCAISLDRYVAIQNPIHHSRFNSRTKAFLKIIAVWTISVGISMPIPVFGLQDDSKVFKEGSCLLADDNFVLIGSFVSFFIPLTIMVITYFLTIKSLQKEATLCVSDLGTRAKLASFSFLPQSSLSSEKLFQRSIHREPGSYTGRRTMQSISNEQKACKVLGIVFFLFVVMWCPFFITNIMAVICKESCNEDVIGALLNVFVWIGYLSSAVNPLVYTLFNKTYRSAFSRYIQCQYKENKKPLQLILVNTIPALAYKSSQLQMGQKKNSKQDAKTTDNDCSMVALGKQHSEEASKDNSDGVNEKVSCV
T2 sequence (P28335 33-458): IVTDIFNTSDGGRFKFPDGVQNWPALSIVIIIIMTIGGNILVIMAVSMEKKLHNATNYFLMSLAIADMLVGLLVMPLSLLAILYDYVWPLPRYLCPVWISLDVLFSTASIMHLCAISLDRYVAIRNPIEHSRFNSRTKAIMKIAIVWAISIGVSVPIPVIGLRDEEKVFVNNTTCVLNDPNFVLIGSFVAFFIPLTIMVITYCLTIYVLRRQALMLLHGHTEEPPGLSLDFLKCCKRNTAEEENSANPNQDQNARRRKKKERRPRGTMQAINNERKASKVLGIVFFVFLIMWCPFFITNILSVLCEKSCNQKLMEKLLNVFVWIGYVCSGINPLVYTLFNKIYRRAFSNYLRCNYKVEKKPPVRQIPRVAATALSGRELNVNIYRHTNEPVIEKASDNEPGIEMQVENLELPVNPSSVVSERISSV
Sequence of D2 dopaminergic receptor (P14416 whole entry): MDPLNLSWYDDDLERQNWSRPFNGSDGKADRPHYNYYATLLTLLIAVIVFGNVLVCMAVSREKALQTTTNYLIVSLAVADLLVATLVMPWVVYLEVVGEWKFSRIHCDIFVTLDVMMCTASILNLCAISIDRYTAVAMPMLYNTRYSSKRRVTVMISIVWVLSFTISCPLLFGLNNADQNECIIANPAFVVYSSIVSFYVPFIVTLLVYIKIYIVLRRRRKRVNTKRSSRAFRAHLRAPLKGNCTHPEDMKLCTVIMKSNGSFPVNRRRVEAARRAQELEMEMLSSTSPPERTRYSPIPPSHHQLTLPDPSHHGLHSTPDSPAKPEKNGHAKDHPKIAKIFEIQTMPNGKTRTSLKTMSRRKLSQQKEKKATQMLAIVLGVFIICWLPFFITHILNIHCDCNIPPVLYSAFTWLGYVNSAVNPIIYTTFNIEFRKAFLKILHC

On to `CN1CCC(=C2c3ccccc3Sc3ccccc32)CC1` [Pimethixene, 9-(N-methyl-piperidyliden-4)-thioxanthene], for which the Ki at 5-HT2A receptor was 0.0631 nM; at 5-HT2C receptor, 2.51 nM; on human H1 receptor (H1, read-out: pKi values (converted)), 0.00794 nM; at M1 muscarinic receptor, 2.51 nM; at D2 dopaminergic receptor, 6.31 nM; in assay [4], 25.1 nM. The same molecule gave a Ki on human 5-HT2B receptor of 0.0251 nM. For the same molecule, the affinity result on human H1 receptor (human H1 receptor, result in words) is given as “high affinity”; in assay [1] (human H2 receptor, result in words), “no affinity”; in [2] (human H3 receptor, result in words), “no affinity”; in [3] (human H4 receptor, result in words) it was “no affinity”. For the same molecule, the pKi values entry in assay [1] (H2), in assay [2] (H3) and in assay [3] (H4) was “low activity” in each case. In addition, the “plasma protein extravasation as EvansBlue extinction at 600nm” value (“plasma protein extravasation” below) in assay [5] (0,01 µg/kg i.v.) is recorded as 0,157 ± 0,040; in assay [5] (0,1 µg/kg i.v.) it was 0,126 ± 0,028; in [5] (0,001 µg/kg i.v.), 0,269 ± 0,022. Also, the “affinity for the 5-HT2B receptor versus 5HT2C receptor” value on human 5-HT2B receptor (selectivity, result in words) is listed as “selective affinity”.
As for `CN1CCC(=C2c3ccccc3CCc3sccc32)CC1` [Pizotifen], the “plasma protein extravasation” value is given as 0,404 ± 0,025 in assay [5] (1 µg/kg i.v.), 0,144 ± 0,035 in assay [5] (10 µg/kg i.v.) and 0,230 ± 0,018 in assay [5] (100 µg/kg i.v.). In addition, on human 5-HT2B receptor, the Ki is 2.88 nM.
As for `Clc1cccc(N2CCNCC2)c1` [mCPP, m-chlorophenylpiperazine], the extinction in assay [5] (positive control: mCPP agonist alone, 1µg/kg, negative control 0,130 ± 0,024) is on record as 0,300 ± 0,038.
With `CC[C@@H](CO)NC(=O)[C@@H]1C=C2c3cccc4c3c(cn4C)C[C@H]2N(C)C1` [Methysergide], the “plasma protein extravasation” value in assay [5] (0,1 µg/kg i.v.) is recorded as 0,265 ± 0,034; in assay [5] (1 µg/kg i.v.), 0,250 ± 0,027; in assay [5] (10 µg/kg i.v.), 0,228 ± 0,064; in assay [5] (100 µg/kg i.v.) it was 0,189 ± 0,026.

For the origin of these results see patent EP1655027A1, “9-(N-methyl-piperidyliden-4)-thioxanthene for treatment of pulmonary hypertension and migraine” (Biofrontera Pharmaceuticals GmbH, priority 2004, dated 2006).
